Results as given in PubChem BioAssay AID586 (The Scripps Research Institute Molecular Screening Center, 2007).
Activity calls are given as the source filed them. No rule for the calls is given here.

These compounds were tested on antigen receptor-induced NF-kappaB activation reporter, cells (assay: inhibitors of antigen receptor-triggered NF-kB signaling, dose response, cell-based (AID 586)).

IC50	Structure (SMILES)
1420 nM	COc1ccc(C2=Nn3c(nnc3-c3ccccc3OC)SC2)cc1OC
1160 nM	Cc1oc(-c2ccccc2Cl)nc1CSCC(=O)N1CCCC1
> 30000 nM (inactive)	COc1ccc(-c2noc(CCCC(=O)O)n2)cc1
565 nM	Cc1csc(NC(=O)c2sc3nc(-c4cccs4)ccc3c2N)n1
7040 nM	Cc1cccc(N2CCN(C(=O)c3ccc(CS(=O)(=O)c4ccccc4C)o3)CC2C)c1 (stereo not given)
25000 nM (inactive)	CCCOc1ccccc1C1CC(=O)Nc2cc3c(cc21)OCCO3 (stereo not given)
> 30000 nM (inactive)	CCOc1ccccc1NC(=O)c1cccc(NC(=O)c2ccco2)c1
1640 nM	COc1cc(CC(NC(C)=O)C(=O)NC2CCN(c3nc(C)cc(C)c3C#N)CC2)cc(OC)c1 (stereo not given)
1150 nM	Cc1ccc2nc(-c3ccccc3)cn2c1
4100 nM	COCCn1c(C)cc(C(=O)CSc2nnc(C)s2)c1C
17000 nM (inactive)	CNC(=O)CCc1nc(-c2ccc(C(C)(C)C)cc2)no1
5460 nM	Cc1ccc(C(=O)NCCn2cc(SCC(=O)Nc3cc(C)on3)c3ccccc32)cc1
> 9970 nM (inactive)	CCN(CC)c1ccc2cc(-c3nc4ccccc4n3C)c(=O)oc2c1
> 30000 nM (inactive)	c1ccc(-c2noc(-c3ccc4c(c3)OCO4)n2)nc1
5020 nM	N#CC1=C2SCC(O)(c3ccccc3)N2C(=O)CC1c1cccs1 (stereo not given)
8420 nM	Cc1cccc2cc(CN(Cc3cccs3)C(c3nnnn3C3CCCC3)C(C)C)c(=O)[nH]c12 (stereo not given)
2060 nM	Cc1ccc(-c2nc(-c3ccccn3)no2)cc1
257 nM	COc1ccc(OCc2cccc(C(=O)O)c2)cc1
6610 nM	COc1cc(C2C(C#N)=C(C)NC3=C2C(=O)c2ccccc23)cc(OC)c1OC (stereo not given)
2650 nM	O=C(Cc1cccs1)Nc1nc2c(s1)CCCC2
> 9970 nM (inactive)	COc1ccccc1-c1nnc2sc(-c3ccc(N(C)C)cc3)nn12
> 30000 nM (inactive)	O=C(NC1c2ccccc2-c2ccccc21)N1CCCCC1
2600 nM	CCCCn1c(SCc2c(C)noc2C)nc2cc(S(N)(=O)=O)ccc21
6590 nM	Cc1cccc(-n2ncc3c(N(C)C4CCCCC4)ncnc32)c1
700 nM	COC(=O)C1=C(CN2CCCc3ccccc32)NC(=O)NC1c1ccc(F)cc1 (stereo not given)
> 30000 nM (inactive)	O=C(CSc1nnnn1C1CC2CCC1C2)Nc1ccnc2ccccc12 (stereo not given)
1650 nM	CN(C)c1ccc2c(c1)OC(N)=C(C#N)C2c1cccc(F)c1 (stereo not given)

IC50	Structure (SMILES)
> 30000 nM (inactive)	O=C(O)[C@@H]1CCCC[C@@H]1C(=O)N1CCc2ccccc2C1CN1C(=O)c2ccccc2C1=O (stereo not given in full)
13200 nM (inactive)	COC(=O)c1[nH]c2c(c1C)C(=O)CC(c1ccccc1)C2 (stereo not given)
> 30000 nM (inactive)	CCNc1ccc(C(=O)OCC)cc1NC(=O)c1cccc(N(C)C)c1
2260 nM	O=C(CN1C(=O)c2ccccc2S1(=O)=O)N1CCc2ccccc21
2250 nM	Cn1c(=O)n(C)c2cc(C(=O)Nc3ccc4c(c3)OCO4)ccc21
819 nM	CCN(CC)c1ccc(-c2nn3c(-c4ccccc4OC)nnc3s2)cc1
203 nM	CC1CCN(c2nc3ccc(C(=O)O)cc3s2)CC1
3300 nM	O=c1c2ccccc2cnn1-c1nc2ccccc2s1
730 nM	CC(=O)c1ccc(-c2nc3c4ccccc4ccn3c2C(C)=O)o1
316 nM	CCOC(=O)c1[nH]c2c(c1C)C(=O)CC(c1ccco1)C2 (stereo not given)
4750 nM	CCN1C=CC(=C2C(=O)c3ccccc3C2=O)C=C1
3280 nM	COc1cccc(-c2nnc3n2N=C(C(C)(C)C)CS3)c1
1540 nM	COc1cc(OC)cc(-c2cc3nc(C)c(CCC(=O)O)c(C)n3n2)c1
1350 nM	CCOc1ccccc1NC(=O)Cn1nnc(C(=O)NCc2ccco2)c1N
> 30000 nM (inactive)	CCCOc1c(OC)cccc1C1CC(=O)Nc2cc(OC)c(OC)c(OC)c21 (stereo not given)
> 30000 nM (inactive)	COc1cccc(C=Nc2cccnc2)c1O
> 9970 nM (inactive)	CCN(CC)c1ccc2cc(NC(=O)CCC(=O)O)c(=O)oc2c1
2420 nM	O=C(NC1=NCCS1)C1COc2ccccc2O1 (stereo not given)
2570 nM	CCOc1ccc(OCc2cccc(C(=O)N3CCOCC3)c2)cc1
1400 nM	c1ccc(-c2noc(-c3ccc4ccccc4c3)n2)nc1
738 nM	CCN(c1ccccc1)S(=O)(=O)c1ccc(Oc2ccc(-n3ccnc3)cc2)nc1
615 nM	O=C(O)c1cccc(COc2ccccc2Cl)c1
> 30000 nM (inactive)	Clc1ccc(COn2nnc3ccccc32)c(Cl)c1
3900 nM	COc1ccc(C(=O)NC(=O)Nc2cc(C)ccn2)cc1
192 nM	CCOc1ccc(OCc2cccc(C(=O)O)c2)cc1
> 30000 nM (inactive)	Cc1cc(C(=O)OCC(=O)NCc2ccco2)c(C)n1-c1ccccc1
> 30000 nM (inactive)	CC(C)c1nnc(NC(=O)c2c(O)c3cccc4c3n(c2=O)CCC4)s1

IC50	Structure (SMILES)
4600 nM	CCOc1ccc(-c2cc(C(=O)O)c3ccccc3n2)c(OCC)c1
> 30000 nM (inactive)	Cc1cc(-n2c(C)cc(C(=O)CSc3ncnc4ccccc34)c2C)no1
1710 nM	Oc1c(C(Nc2nc3ccccc3s2)c2ccco2)ccc2cccnc12 (stereo not given)
1670 nM	Cc1c(C(=O)OCCOC(C)C)[nH]c2c1C(=O)CC(c1ccco1)C2 (stereo not given)
4840 nM	COc1cccc2c(C)c(C(=O)O)[nH]c12
2280 nM	O=C(Nc1nc2ccccc2[nH]1)c1ccccc1F
3290 nM	Cc1ccc(-c2cc3c(nn2)-c2ccccc2C3=O)cc1
11600 nM (inactive)	CCOC(=O)c1ccccc1NC(=O)Cn1c(-c2nonc2N)nc2ccccc21
> 30000 nM (inactive)	Cc1ccc(-c2nsc3c(N4CCC(C(N)=O)CC4)ncnc23)cc1
1610 nM	CCNC(=O)CCc1nc(-c2ccc(C(C)(C)C)cc2)no1
2940 nM	CCN1C(=O)c2cccc3c(S(=O)(=O)Nc4ccccn4)ccc1c23
8250 nM	C=C(C)COc1ccc(-c2[nH]ncc2-c2ccc(OC)c(OC)c2)c(O)c1
10600 nM (inactive)	Cc1ccc(Nc2cc(C)nn2-c2nc(C)cc(=O)[nH]2)cc1
953 nM	Cc1ccc(-c2cnc(NC(=O)CCC(=O)N3CCCCC3)n2C)cc1
8330 nM	CCOC(=O)C(C(C)=O)c1c(Br)c(O)c(O)c2c(C(=O)c3ccc(C)cc3)coc12 (stereo not given)
2320 nM	O=C(NCc1cccs1)c1nc2c(nnn2Cc2ccccc2Cl)c(=O)[nH]1
6840 nM	CC1=CC(C)(C)Nc2ccc(OC(=O)CN3C(=O)CCC3=O)cc21
73 nM	CC1CCCN(c2ncnc3c2cnn3-c2ccc(Cl)cc2)C1 (stereo not given)
> 30000 nM (inactive)	Cn1cc(/C=N/n2cnc3scc(-c4ccc(Cl)cc4)c3c2=O)c2ccccc21
17900 nM (inactive)	COc1ccccc1C(=O)N1CCN(c2cccc(Cl)c2)CC1
3410 nM	Cc1cccc(C)c1-n1nnnc1SCSc1nnnn1-c1c(C)cccc1C
438 nM	Cc1oc2cc3c(C(=O)OCCN(C)C)c(C)oc3cc2c1C(=O)OCCN(C)C
1090 nM	c1ccc(-c2cccc(-c3ccccn3)n2)nc1
1830 nM	CCOc1ccc(-c2nc(CSCC(=O)NCc3ccco3)c(C)o2)cc1
766 nM	COc1cc(C2C(C#N)=C(N)Oc3cc(N(C)C)ccc32)cc2c1OCO2 (stereo not given)
8970 nM	NC(=O)c1sc2nccc(Nc3ccccc3)c2c1N
4220 nM	O=C(Nc1ccc(N2CCOCC2)cc1)c1cnsn1

IC50	Structure (SMILES)
> 9970 nM (inactive)	COc1cccc(NC(=O)CSc2nnc(-c3cc(C)n(-c4ccccc4)c3C)o2)c1
3030 nM	O=C(/C=C\Nc1ccc2c(c1)OCO2)c1ccccn1
1040 nM	CCCN1C=CC(=C2C(=O)c3ccccc3C2=O)C=C1
1860 nM	Cc1nn(-c2ccccc2)c(Cl)c1C1C(C#N)=C(N)Oc2n[nH]c(C)c21 (stereo not given)
1240 nM	O=C(c1ccc(Cl)cc1)N1CCCCC(Sc2nnc(-c3ccc4c(c3)OCO4)o2)C1=O (stereo not given)
> 30000 nM (inactive)	Cc1cc(C)nc(N2CCC(C(=O)NCCc3ccc(F)cc3)CC2)n1
252 nM	O=C(O)c1cccc(COc2ccc(CO)cc2Cl)c1
> 9970 nM (inactive)	CC1=CC(C)(C)Nc2ccc(OC(=O)c3cccnc3)cc21
310 nM	Cc1cc(C(=O)CN2C(=O)c3ccccc3S2(=O)=O)c(C)n1CC1CCCO1 (stereo not given)
14600 nM (inactive)	COc1cccc(Oc2cnc(N)nc2-c2ccc(OC)cc2O)c1
1450 nM	CCn1c2ccccc2c2cc(Nc3cc(C)nc4ncnn34)ccc21
2660 nM	COc1ccc(-n2ncc3c(N4CCCCC4)ncnc32)cc1
1870 nM	COc1ccc2c(c1)sc1nc(-c3ccccc3)cn12
> 30000 nM (inactive)	COc1cc(C(=O)N2CCN(c3cc(Cl)ccc3Cl)CC2)cc(OC)c1OC
4510 nM	CCCN(CCC)S(=O)(=O)c1ccc(C(=O)Nc2nnc(-c3cccc(OC)c3)o2)cc1
> 9970 nM (inactive)	Cc1nn(Cc2c(Cl)cccc2Cl)c(C)c1NC(=O)c1cc(C(C)C)on1
1180 nM	COc1cc(NC(=O)c2cccc3c2C(=O)N(Cc2cccnc2)C3)cc(OC)c1OC
> 9970 nM (inactive)	CCOC(=O)c1[nH]c(C)c(C(=O)c2cc(F)ccc2F)c1C
6570 nM	N#Cc1c(NC(=O)CSc2ncn[nH]2)sc2c1CCCCC2
2500 nM	Cc1nn(Cc2ccccc2Cl)c(C)c1C(=O)Nc1nnc(C2CC2)s1
> 30000 nM (inactive)	O=C1NC(Nc2nc3ccccc3s2)(C(F)(F)F)C(=O)N1C1CCCCC1 (stereo not given)
20900 nM (inactive)	COc1ccc2cc(C(=O)NCc3ccco3)c(=Nc3ccc(C(=O)O)cc3)oc2c1
10300 nM (inactive)	CSc1nnc2c3ccccc3n(CCc3ccccc3)c2n1
300 nM	CC(C)(C)c1ccc(-c2noc(CCC(N)=O)n2)cc1
